Results on two compounds are retold here after US20240239786A1, “COMPOSITIONS AND METHODS FOR THE TREATMENT AND PREVENTION OF CANCER” (Yale University, priority 2021, published 2024).

One may read the inhibition as the share of the control response that was lost under treatment. The low end stands for a weak effect, the high end for a strong effect.

The test system of this assay is PEO1 cells. Put plainly: Flow cytometric EdU incorporation (DNA synthesis) assay, PEO1. The assay is classed as cell-based. To be noted: for cell cycle distribution: 30 μM DB4 or 1 μM triapine; for time-dependent inhibition of DNA synthesis (EdU-positive cells): 30 μM DB4 or 1 μM triapine, 3, 6, 24 hr. The protocol:
Cells were plated for 24 hr and then treated with 50 μM compounds for 72 hr. For a positive control, cells were treated with 1 μM triapine for 72 hr. The percentage of cell survival was determined by the MTS cytotoxicity assay. […] Cells were treated with 50 μM compounds or 1 μM triapine for 24 hr. During the last hour, cells were pulse-labeled with EdU, stained with the Click-iT EdU Alexa Fluor 488 Assay Kit, counterstained with 7-AAD, and subsequently analyzed by flow cytometry. EdU-positive cells were gated to determine the percentage of the S phase cell population. The bivariate plots of Alexa Fluor 488 (EdU-positive) and PE-Cy5 (7-AAD-positive) are shown. […] Cells were treated with 50 μM compounds or 1 μM triapine for 24 hr. During the last hour, cells were pulse-labeled with EdU, stained with the Click-iT EdU Alexa Fluor 488 Assay Kit, counterstained with 7-AAD, and subsequently analyzed by flow cytometry. EdU-positive cells were gated to determine the percentage of the S phase cell population. The percentages of DNA synthesis in cells treated with each of 10 compounds and triapine relative to the DMSO-treated control is calculated and shown. FIG. 2D depicts representative results of dNTP measurement on triapine and DB4 in PEO4 cells. Cells were treated with 1 μM triapine or 50 μM DB4 for 24 hr. Cells were extracted with 65% methanol for determination of each of dNTPs expressed as pmole/10^6 cells. Data are means±SD (N=3). *, p<0.05; **, p<0.01; ***, p<0.001, compared with the DMSO-treated control in each dNTP. […] PEO1 cells were pre-treated with 1 mM dA plus […], 10 mM dC plus 10 mM dT, or all dNs for 1 hr and then treated with various concentrations of DB4 or triapine for 72 hr. The percentage of cell survival was determined by the MTS cytotoxicity assay. Data are means±SD (N=3). *, p<0.05; **, p<0.01; ***, p<0.001, compared with the control in each concentration of DB4 or triapine. FIG. 2F depicts schematic representation of structures and molecular compound names of triapine, DB4, and A4.
PEO1 cells were treated with 30 μM DB4 or 1 μM triapine for indicated times, pulsed with EdU for 1 hr and subsequently assayed for DNA synthesis inhibition as described in FIG. 2B. The bivariate plots of Alexa Fluor 488 and PE-Cy5 were gated to determine % S phase cells. […] PEO4 cells were treated with 30 μM DB4 or 1 μM triapine for indicated times, pulsed with EdU for 1 hr and subsequently assayed for DNA synthesis inhibition as described in FIG. 2B. The bivariate plots of Alexa Fluor 488 and PE-Cy5 were gated to determine % S phase cells. […] The bivariate plots of Alexa Fluor 488 and PE-Cy5 shown in FIG. 6A and FIG. 6B were gated to determine % cells in G1, S, and G2/M phases. […] PEO4 cells were treated with 30 μM DB4 or 1 μM triapine for various time periods and subjected to western blot analysis for the levels of cyclin A2, p-CDK1/2, p-H1, p-Chk1, and HSC70. The HSC70 protein level was used as a loading control. Cropped gel images of protein bands are presented. Cyclin A2, p-CDK1/2, and p-H1 bands were from re-probing the same blot. p-Chk1 and HSC70 bands were from re-probing the same duplicated blot. […] The CDK2 activity is expressed by the percentage of the p-HI levels relative to that of the 0 hr control is shown. […] Protein was analyzed by western blotting for p-Chk1, p-ATR, p-RPA32, γH2AX, and HSC70. Cropped gel images of protein bands are presented. All protein bands were from re-probing the same blot. DSB end resection is assessed by the level of p-RPA32. […]
(A flow cytometer gives signals particle by particle.)

Regarding `C=CCn1c(SCc2cccc(Cl)c2)nnc1C1CCN(Cc2nc3ccccc3s2)CC1` [DB4, 2-[(4-{4-allyl-5-[(3-chlorobenzyl)thio]-4H-1,2,4-triazol-3-yl}-1-piperidinyl)methyl]-1,3-benzothiazole], the cell cycle distribution entry is “expansion of the G2/M population” and the “time-dependent inhibition of DNA synthesis (EdU-positive cells)” value is “gradual decline in the EdU-positive cell population”. This compound showed an inhibition at 50 µM (Homo sapiens, 50 μM, 24 hr) of over 99%.

For the compound `NC(=S)NN=Cc1ncccc1N` [triapine, 3-aminopyridine-2-carboxaldehyde-thiosemicarbazone, reference compound], the cell cycle distribution entry is “expansion of the G2/M population” and the “time-dependent inhibition of DNA synthesis (EdU-positive cells)” value is recorded as “prompt reduction in EdU-positive cells”.
